Results from ChEMBL document CHEMBL1201862, “PubChem BioAssay data set” (2004).
The source made the active and inactive calls.

Columns and labels:
Aminopeptidase N = molecular target: T1, Aminopeptidase N (Plasmodium falciparum FcB1/Columbia, UniProt O96935); assay: P. falciparum M1AAP inhibitors, biochemical, fluorogenic H-Leu-NHMec substrate, 1536-well (AID 1445); design: species or system Plasmodium falciparum 3D7, 3D7
T1 sequence (O96935 whole entry): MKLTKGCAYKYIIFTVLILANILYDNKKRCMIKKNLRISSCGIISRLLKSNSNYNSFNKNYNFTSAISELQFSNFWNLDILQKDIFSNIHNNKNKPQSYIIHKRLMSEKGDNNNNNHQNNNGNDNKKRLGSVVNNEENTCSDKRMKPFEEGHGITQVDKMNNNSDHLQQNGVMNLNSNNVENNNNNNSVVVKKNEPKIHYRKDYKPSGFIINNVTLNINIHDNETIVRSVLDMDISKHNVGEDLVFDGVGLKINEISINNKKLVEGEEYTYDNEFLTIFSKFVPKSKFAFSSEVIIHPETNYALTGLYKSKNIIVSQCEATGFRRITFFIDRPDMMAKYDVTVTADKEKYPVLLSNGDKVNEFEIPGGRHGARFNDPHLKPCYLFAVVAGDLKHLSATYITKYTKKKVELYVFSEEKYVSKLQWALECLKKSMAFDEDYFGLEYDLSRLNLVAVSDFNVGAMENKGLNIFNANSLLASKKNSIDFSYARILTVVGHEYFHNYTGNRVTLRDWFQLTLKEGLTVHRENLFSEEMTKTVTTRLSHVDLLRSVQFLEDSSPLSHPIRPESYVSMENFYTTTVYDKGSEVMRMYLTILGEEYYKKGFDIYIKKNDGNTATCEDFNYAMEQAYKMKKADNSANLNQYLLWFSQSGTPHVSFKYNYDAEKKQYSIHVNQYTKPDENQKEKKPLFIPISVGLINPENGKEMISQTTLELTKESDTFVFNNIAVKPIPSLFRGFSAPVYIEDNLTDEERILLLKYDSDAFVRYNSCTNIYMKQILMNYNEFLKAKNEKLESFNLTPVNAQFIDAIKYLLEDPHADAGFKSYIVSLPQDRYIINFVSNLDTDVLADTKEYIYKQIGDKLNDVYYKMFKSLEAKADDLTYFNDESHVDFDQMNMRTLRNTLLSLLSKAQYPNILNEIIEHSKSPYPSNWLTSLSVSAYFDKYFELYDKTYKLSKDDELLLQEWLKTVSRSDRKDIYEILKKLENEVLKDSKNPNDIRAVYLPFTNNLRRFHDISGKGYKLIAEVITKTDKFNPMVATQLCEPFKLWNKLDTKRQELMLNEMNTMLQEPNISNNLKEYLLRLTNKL

Prothrombin = Prothrombin (Homo sapiens, UniProt P00734); assay: Thrombin 1536 HTS Dose Response Confirmation. [Related pubchem assays: 1046 (Thrombin 1536 HTS; hits were confirmed in this assay)]; assay type: functional
Leucine aminopeptidase = molecular target: T2, Leucine aminopeptidase (Plasmodium falciparum 3D7, UniProt Q8IL11); assay: P. falciparum M17LAP inhibitors, primary screen, biochemical, fluorogenic H-Leu-NHMec substrate, 1536-well (AID 1619); assay type: functional
T2 sequence (Q8IL11 whole entry): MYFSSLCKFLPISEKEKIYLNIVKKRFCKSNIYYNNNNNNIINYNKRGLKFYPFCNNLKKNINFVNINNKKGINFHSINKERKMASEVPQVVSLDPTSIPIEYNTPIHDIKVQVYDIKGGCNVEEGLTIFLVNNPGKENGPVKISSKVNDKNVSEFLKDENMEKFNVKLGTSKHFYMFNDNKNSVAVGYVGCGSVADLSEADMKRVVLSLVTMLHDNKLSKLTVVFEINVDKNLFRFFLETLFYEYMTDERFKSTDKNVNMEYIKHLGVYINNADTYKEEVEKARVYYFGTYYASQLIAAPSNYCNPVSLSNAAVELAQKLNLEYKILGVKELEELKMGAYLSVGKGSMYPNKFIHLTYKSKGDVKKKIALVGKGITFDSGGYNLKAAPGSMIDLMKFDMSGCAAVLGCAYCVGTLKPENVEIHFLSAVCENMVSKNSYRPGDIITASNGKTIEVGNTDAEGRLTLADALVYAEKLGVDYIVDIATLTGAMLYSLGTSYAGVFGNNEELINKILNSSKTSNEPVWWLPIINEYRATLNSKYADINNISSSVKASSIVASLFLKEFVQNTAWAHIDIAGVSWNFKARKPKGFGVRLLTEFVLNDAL

[1] = molecular target: Voltage-dependent T-type calcium channel subunit alpha-1H (Homo sapiens, UniProt O95180); assay type: functional;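 note: channel activity triggered by adding a high calcium stimulation buffer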
Voltage-dependent T-type calcium channel subunit alpha-1H, sequence (O95180 whole entry): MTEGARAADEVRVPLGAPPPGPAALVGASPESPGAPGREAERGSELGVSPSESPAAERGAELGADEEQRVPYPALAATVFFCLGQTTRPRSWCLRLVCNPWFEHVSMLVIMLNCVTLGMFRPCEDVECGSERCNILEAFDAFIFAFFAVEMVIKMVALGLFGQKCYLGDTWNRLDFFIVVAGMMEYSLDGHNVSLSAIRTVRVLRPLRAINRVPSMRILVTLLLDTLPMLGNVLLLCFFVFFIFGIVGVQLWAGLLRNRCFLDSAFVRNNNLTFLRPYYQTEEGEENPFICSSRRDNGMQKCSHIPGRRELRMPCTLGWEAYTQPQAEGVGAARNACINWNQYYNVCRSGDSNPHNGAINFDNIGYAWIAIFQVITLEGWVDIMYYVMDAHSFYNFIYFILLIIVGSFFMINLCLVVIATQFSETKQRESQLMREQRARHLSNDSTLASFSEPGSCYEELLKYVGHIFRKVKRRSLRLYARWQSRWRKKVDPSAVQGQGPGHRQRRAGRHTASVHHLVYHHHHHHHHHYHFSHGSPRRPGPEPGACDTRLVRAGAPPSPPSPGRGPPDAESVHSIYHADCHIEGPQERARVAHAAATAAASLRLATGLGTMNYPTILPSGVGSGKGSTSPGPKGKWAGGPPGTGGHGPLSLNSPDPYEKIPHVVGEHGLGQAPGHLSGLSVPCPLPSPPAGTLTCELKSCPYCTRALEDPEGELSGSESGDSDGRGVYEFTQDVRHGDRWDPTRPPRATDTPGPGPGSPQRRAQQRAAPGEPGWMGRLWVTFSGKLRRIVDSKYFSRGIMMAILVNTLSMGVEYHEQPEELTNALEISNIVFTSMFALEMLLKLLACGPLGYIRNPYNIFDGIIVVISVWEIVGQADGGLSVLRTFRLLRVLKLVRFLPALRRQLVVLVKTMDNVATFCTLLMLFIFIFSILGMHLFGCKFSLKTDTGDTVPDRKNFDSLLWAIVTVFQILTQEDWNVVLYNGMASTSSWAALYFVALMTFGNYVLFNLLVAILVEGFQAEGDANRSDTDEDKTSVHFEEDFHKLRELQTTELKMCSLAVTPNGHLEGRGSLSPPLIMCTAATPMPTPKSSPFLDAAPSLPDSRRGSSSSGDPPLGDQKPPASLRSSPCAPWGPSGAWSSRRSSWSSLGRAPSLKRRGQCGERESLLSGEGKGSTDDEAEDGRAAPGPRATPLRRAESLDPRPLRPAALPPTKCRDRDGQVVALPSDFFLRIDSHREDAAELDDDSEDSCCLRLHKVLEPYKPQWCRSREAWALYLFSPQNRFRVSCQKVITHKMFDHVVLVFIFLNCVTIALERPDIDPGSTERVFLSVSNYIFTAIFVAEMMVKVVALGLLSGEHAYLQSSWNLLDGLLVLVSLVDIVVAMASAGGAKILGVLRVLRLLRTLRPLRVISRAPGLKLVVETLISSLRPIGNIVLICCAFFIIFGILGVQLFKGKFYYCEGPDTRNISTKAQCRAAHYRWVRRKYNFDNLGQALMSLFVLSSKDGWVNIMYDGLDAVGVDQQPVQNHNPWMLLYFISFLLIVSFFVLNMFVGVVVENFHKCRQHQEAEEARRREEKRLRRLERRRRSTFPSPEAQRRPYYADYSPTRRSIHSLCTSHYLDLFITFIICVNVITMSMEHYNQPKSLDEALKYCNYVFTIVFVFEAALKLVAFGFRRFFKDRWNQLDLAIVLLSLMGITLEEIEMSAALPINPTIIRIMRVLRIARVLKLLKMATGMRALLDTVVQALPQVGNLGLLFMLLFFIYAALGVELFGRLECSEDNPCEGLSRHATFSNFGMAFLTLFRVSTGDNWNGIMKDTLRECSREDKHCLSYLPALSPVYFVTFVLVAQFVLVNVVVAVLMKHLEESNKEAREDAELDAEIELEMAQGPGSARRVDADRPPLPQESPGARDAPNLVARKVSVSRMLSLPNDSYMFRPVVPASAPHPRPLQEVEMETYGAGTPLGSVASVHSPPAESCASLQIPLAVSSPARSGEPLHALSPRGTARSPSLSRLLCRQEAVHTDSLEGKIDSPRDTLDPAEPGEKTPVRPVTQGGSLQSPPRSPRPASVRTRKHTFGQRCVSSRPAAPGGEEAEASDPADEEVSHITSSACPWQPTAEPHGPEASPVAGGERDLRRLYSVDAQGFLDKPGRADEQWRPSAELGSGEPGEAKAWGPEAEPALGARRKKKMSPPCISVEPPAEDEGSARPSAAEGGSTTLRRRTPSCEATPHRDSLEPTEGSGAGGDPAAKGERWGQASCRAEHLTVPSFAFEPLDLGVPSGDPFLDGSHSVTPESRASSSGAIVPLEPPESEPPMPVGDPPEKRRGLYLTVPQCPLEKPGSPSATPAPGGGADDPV

[2] = molecular target: T3, Short transient receptor potential channel 4 (Mus musculus, UniProt Q9QUQ5); assay: mouse TRPC4 channel activators, dose response, cell-based, HEK293 TRPC4/mu-opioid, Fluo-4 calcium (AID 434937); assay type: functional
T3 sequence (Q9QUQ5 whole entry): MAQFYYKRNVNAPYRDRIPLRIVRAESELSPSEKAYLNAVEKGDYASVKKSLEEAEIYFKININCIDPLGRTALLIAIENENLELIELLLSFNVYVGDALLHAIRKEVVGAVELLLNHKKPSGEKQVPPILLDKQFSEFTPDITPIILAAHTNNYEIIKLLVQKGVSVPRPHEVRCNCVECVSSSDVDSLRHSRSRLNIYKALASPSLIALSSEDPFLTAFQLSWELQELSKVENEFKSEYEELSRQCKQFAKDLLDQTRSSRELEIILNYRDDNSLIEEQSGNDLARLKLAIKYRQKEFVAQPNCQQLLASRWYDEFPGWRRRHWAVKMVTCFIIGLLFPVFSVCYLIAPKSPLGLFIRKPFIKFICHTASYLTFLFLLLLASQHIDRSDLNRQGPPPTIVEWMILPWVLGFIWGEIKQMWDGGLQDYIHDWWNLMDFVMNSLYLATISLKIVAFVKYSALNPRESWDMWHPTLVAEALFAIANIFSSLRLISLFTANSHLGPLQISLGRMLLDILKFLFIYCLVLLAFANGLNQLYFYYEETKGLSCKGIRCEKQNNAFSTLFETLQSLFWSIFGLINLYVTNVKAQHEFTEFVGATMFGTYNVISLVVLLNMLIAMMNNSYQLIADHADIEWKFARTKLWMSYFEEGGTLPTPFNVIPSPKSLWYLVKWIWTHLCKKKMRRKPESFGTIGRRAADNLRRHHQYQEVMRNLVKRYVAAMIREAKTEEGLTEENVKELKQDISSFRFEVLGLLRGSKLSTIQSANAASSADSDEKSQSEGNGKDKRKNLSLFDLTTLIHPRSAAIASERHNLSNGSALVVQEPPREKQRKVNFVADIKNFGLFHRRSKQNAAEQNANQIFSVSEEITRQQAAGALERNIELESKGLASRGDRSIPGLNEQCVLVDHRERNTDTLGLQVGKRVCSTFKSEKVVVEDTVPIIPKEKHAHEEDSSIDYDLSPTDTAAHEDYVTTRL

Protein RecA = molecular target: T4, Protein RecA (Mycobacterium tuberculosis, UniProt P9WHJ3); assay: Fluorescence Cell-Free Homogeneous Dose Retest to Identify Inhibitors of RecA-Intein Splicing Activity. [Related pubchem assays (depositor defined):AID2097, AID2223, AID489010, AID492950]; assay type: functional
T4 sequence (P9WHJ3 whole entry): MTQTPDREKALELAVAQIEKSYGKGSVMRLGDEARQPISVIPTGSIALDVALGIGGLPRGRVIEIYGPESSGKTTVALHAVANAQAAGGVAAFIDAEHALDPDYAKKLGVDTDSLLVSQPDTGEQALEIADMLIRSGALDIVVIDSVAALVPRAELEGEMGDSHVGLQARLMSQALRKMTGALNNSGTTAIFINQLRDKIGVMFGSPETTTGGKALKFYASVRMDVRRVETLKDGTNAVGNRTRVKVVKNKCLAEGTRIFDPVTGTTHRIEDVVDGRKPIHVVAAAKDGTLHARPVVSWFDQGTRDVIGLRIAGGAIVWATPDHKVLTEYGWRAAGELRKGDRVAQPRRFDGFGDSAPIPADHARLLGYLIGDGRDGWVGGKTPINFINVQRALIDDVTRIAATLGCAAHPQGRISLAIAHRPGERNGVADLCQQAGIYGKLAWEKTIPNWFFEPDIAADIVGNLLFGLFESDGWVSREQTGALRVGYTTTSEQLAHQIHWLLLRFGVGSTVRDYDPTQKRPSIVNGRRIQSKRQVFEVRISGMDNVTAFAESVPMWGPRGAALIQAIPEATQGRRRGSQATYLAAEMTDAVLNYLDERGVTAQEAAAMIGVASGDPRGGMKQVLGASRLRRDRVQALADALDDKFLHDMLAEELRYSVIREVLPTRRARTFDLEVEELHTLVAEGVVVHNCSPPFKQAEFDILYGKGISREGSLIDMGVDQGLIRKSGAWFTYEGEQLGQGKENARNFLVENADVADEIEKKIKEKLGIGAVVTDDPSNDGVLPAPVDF

[3] = THP-1 cell cytotoxicity, dose response, cytotoxicity control for non-replicating M. tuberculosis project (AID 489025); assay type: functional
[4] = Vero E6 cell cytotoxicity, dose response, cytotoxicity control for non-replicating M. tuberculosis project, secondary assay (AID 492998); assay type: functional, VeroE6; settings: Vero C1008
[5] = molecular target: Peroxisome proliferator-activated receptor gamma/Nuclear receptor coactivator 3 (Homo sapiens, UniProt P37231); assay: (§1) TR-FRET dose response biochemical High Throughput Screening assay for agonists of the steroid receptor coactivator 3 (SRC-3) recruitment by the peroxisome proliferator-activated receptor gamma (PPAR gamma): non-selective agonists. [Related pubchem assays: 1301 (Confirmation screen.), 1048 (Primary screen.)]; assay type: functional
Peroxisome proliferator-activated receptor gamma/Nuclear receptor coactivator 3, sequence (P37231 whole entry): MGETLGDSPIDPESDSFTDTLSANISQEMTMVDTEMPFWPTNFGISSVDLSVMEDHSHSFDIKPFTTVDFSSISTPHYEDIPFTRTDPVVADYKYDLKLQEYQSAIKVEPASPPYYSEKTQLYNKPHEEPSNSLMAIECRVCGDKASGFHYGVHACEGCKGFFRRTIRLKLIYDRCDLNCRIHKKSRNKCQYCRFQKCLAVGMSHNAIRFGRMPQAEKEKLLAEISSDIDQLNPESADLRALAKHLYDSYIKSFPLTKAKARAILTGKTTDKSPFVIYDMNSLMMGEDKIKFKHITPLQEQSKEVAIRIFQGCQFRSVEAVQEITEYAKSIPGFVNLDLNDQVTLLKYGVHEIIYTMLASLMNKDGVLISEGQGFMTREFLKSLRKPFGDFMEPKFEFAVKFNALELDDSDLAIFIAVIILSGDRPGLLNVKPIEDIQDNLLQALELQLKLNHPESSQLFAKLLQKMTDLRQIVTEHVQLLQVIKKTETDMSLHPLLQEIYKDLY
Peroxisome proliferator-activated receptor gamma/Nuclear receptor coactivator 3, sequence (Q9Y6Q9 whole entry, further chain): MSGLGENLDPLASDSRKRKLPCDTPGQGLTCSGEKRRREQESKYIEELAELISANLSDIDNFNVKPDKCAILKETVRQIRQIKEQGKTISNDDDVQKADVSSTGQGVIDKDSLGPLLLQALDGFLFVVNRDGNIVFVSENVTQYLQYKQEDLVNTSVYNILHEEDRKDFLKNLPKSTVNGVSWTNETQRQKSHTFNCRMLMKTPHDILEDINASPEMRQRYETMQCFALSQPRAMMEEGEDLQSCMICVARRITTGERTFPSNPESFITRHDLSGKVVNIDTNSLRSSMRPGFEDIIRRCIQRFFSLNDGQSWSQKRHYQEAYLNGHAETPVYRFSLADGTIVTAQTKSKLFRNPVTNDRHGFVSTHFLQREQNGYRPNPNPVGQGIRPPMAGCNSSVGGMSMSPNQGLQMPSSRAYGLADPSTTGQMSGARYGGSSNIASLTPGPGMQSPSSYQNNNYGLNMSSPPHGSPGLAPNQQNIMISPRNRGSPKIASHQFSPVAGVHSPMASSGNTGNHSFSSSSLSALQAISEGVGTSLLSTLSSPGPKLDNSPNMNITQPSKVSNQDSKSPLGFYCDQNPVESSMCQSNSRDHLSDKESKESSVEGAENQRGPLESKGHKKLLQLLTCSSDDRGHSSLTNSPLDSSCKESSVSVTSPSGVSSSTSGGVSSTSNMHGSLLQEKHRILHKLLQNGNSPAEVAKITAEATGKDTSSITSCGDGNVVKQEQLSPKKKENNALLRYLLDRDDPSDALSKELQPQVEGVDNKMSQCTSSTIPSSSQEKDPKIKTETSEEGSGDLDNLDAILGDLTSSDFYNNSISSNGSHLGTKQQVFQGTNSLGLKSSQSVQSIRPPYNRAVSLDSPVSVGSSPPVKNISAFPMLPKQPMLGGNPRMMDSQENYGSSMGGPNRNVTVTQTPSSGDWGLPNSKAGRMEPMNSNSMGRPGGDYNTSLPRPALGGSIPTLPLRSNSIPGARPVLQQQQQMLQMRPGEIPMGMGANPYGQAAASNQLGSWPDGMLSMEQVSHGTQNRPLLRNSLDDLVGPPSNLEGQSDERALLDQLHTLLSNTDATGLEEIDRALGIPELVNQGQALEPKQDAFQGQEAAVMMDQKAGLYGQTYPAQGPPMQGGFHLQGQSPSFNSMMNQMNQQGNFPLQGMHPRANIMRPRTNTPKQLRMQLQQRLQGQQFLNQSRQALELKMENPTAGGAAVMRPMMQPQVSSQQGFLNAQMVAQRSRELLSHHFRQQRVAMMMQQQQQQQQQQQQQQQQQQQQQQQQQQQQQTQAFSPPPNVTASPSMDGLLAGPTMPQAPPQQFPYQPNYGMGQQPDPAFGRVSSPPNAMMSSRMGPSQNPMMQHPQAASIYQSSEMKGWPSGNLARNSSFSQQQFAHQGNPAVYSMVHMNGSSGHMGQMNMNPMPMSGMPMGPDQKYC

[6] = molecular target: Peroxisome proliferator-activated receptor gamma/Nuclear receptor coactivator 1 (Homo sapiens, UniProt P37231); assay: as §1, with “1 (SRC-1)” for “3 (SRC-3)”, “assays (depositor defined):AID1300, AID1808, AID504735, AID631]” for “assays: 1301 (Confirmation screen.), 1048 (Primary screen.)]”; assay type: protein assay
[7] = molecular target: Peroxisome proliferator-activated receptor gamma/Nuclear receptor coactivator 2 (Homo sapiens, UniProt P37231); assay: TR-FRET dose response biochemical High Throughput Screening assay for agonists of the steroid receptor coactivator 2 (SRC-2) recruitment by the peroxisome proliferator-activated receptor gamma (PPAR gamma): non-selective agonists. [Related pubchem assays: 1297, 1032 ]; assay type: functional
cells = assay type: functional
[8] = molecular target: Luciferin 4-monooxygenase (Photinus pyralis, UniProt P08659); assay: firefly luciferase enzyme inhibitors, dose response, biochemical, luminescence (AID 1891)
Luciferin 4-monooxygenase, sequence (P08659 whole entry): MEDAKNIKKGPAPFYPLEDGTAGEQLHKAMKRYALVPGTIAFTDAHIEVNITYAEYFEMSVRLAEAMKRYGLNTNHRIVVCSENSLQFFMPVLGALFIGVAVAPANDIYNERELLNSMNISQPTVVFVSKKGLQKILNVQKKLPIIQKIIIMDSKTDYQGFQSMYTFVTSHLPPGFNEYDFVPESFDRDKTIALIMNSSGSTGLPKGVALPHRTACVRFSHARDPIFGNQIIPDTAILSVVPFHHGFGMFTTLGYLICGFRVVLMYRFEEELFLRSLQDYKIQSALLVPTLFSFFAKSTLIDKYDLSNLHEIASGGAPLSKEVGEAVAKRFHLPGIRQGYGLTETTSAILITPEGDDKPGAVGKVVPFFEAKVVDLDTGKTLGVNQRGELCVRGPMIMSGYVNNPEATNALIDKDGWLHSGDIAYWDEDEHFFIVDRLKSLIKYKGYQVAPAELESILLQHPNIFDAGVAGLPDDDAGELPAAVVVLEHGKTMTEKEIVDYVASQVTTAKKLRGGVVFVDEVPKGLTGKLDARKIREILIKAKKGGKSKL

[9] = Luminescence Cell-Based Dose Confirmation HTS to Identify Inhibitors of Platelet Dense Granule Release. [Related pubchem assays: 1663 (Primary HTS), 1678 (Summary of Project)]; assay type: functional

For `CCC(C)(C)NC(=O)CN(Cc1ccc2c(c1)OCO2)C(=O)CCC(=O)Nc1nccs1`, which IC50 (Aminopeptidase N) is on record?
Its IC50 is 87.6 µM (active).

With `O=C(CN1C(=O)C2CCCCN2C(=O)c2ccccc21)N1CCCc2ccccc21` (centres undefined) as the compound, how does the IC50 (Aminopeptidase N) read?
The IC50 was 103 µM (active).

For `Cc1ccccc1NC(=O)CCl`, which IC50 (Prothrombin) is on record?
Its IC50 is > 50 µM (not active).

What does the source list for `CCc1cc2cc3c(cc2nc1SCC(=O)Nc1cc(OC)c(OC)cc1C(=O)O)OCO3`?
IC50 (Aminopeptidase N): 76 µM (active); IC50 (Leucine aminopeptidase): < 1 µM (active)

Which EC50 [1] does the source give for `Cc1cccc(N2CCN(C(=O)C(Cc3ccccc3)n3cccc3)CC2)c1C` (centres undefined) here?
Its EC50 is 8.08 µM (active).

For `O=C(CNS(=O)(=O)c1ccc2ccccc2c1)NCCc1ccccn1`, which EC50 [2] is on record?
Its EC50 is 9.44 µM (active).

Which results are given for `O=[N+]([O-])c1cncc([N+](=O)[O-])c1Nc1cccc(O)c1`?
EC50 (Protein RecA): 3.28 µM (active); CC50 [3]: 27 µM (active); CC50 [4]: 15.7 µM (active)

For `O=C(Nc1ccccc1C(F)(F)F)c1ccc(CN2CCC(Cc3ccccc3)CC2)cc1`, which EC50 [1] is on record?
The EC50 was 0.227 µM (active).

With `COc1ccc(C)c2sc(NC(=O)CCS(=O)(=O)c3ccccc3)nc12` as the compound, how does the CC50 [3] read?
The CC50 was 23.1 µM (active).

And the CC50 [4]?
The CC50 was > 20 µM (active).

Which IC50 (Prothrombin) does the source give for `CCn1cc(C(=O)NCc2ccc3c(c2)OCO3)c(=O)c2cc(S(=O)(=O)N3CCOCC3)ccc21` here?
Its IC50 is 0.158 µM (active).

For `COc1cc(OC)cc(C(=O)NC2CCCN(Cc3ccc(Cl)cc3)C2)c1` (centres undefined), which EC50 [2] is on record?
Its EC50 is 5.96 µM (active).

For `CCn1c(=O)cc(SCC(=O)N2CCN(c3ccccn3)CC2)c2ccccc21`, which EC50 [5] is on record?
The EC50 was > 79.4 µM (not active).

What about the EC50 [6] of the same compound?
The EC50 was > 79.4 µM (inactive).

And the EC50 [7]?
The EC50 was > 79.4 µM (not active).

Which EC50 [2] does the source give for `Cc1ccc(Cn2c(SCCN3CCCCC3)nc3c2c(=O)n(C)c(=O)n3C)cc1` here?
The EC50 was 11.9 µM (active).

For `COc1cc(NC(=O)C2COc3ccccc3O2)c(OC)cc1Cl` (centres undefined), which EC50 [1] is on record?
The EC50 was 8.09 µM (active).

For `CCc1cc2cc(C(=O)Nc3ccc(F)cc3)sc2s1`, which EC50 [5] is on record?
The EC50 was > 79.4 µM (not active).

And the EC50 [6]?
The EC50 was > 79.4 µM (inactive).

What about the EC50 [7] of the same compound?
Its EC50 is 57.1 µM (not active).

With `Cc1ccc(-c2ccc(/C=N/NC(=O)CN3CCOCC3)o2)cc1[N+](=O)[O-]` as the compound, how does the IC50 (cells) read?
The IC50 was 22.5 µM (active).

And the CC50 [3]?
Its CC50 is > 40 µM (active).

Which EC50 [8] does the source give for `Oc1ccc(-c2nc3ccccc3s2)cc1` here?
The EC50 was 1.26 µM (active).

And the EC50 [9]?
The EC50 was 47.5 µM (active).

What about the IC50 (Prothrombin) of the same compound?
The IC50 was > 50 µM (not active).

Which EC50 [2] does the source give for `Cn1c(N2CCNCC2)nc2ccccc21` here?
Its EC50 is 0.149 µM (active).
